Laboratory results taken from patent US20050197350A1, “Novel quinoline, tetrahydroquinazoline, and pyrimidine derivatives and methods of treatment related to the use thereof” (TAISHO PHARMACEUTICAL CO., LTD., priority 2003, published 2005).

The compounds below were run on MCH receptors (assay: MCH receptor activity class (method not given)). Settings: activity class 1-3: percent of control at 10^-7 M or IC50.
`CCc1ccccc1NC(=O)N[C@H]1CC[C@@H](Nc2nc3c(c(N(C)C)n2)CCCC3)CC1` [compound 1677] was tested, and the class was 2 (Class 2: The value of percent of control at 10^−7 M was from 40% to 60% or the value of IC′50 was from 50 nM to 200 nM.).
`CN(C)c1nc(N[C@H]2CC[C@@H](NC(=O)Nc3ccccc3I)CC2)nc2c1CCCC2` [compound 1678] was tested, and the class was 3 (Class 3 The value of percent of control at 10^−7 M was more than 60% or the value of IC50 was more than 200 nM.).
`Cc1cccc(C(C)C)c1NC(=O)N[C@H]1CC[C@@H](Nc2nc3c(c(N(C)C)n2)CCCC3)CC1` [compound 1679] was tested, and the class was 2 (Class 2: The value of percent of control at 10^−7 M was from 40% to 60% or the value of IC′50 was from 50 nM to 200 nM.).
In the case of `CC(C)c1ccccc1NC(=O)N[C@H]1CC[C@@H](Nc2nc3c(c(N(C)C)n2)CCCC3)CC1` [compound 1680], the class is reported as 3 (Class 3 The value of percent of control at 10^−7 M was more than 60% or the value of IC50 was more than 200 nM.).
`Cc1c(NC(=O)N[C@H]2CC[C@@H](Nc3nc4c(c(N(C)C)n3)CCCC4)CC2)cccc1[N+](=O)[O-]` [compound 1681] was tested, and the class was 3 (Class 3 The value of percent of control at 10^−7 M was more than 60% or the value of IC50 was more than 200 nM.).
For `CCCc1ccccc1NC(=O)N[C@H]1CC[C@@H](Nc2nc3c(c(N(C)C)n2)CCCC3)CC1` [compound 1682], the class was 3 (Class 3 The value of percent of control at 10^−7 M was more than 60% or the value of IC50 was more than 200 nM.).
For `Cc1cccc(C(C)(C)C)c1NC(=O)N[C@H]1CC[C@@H](Nc2nc3c(c(N(C)C)n2)CCCC3)CC1` [compound 1683, N-(2-tert-butyl-6-methylphenyl)-N′-(cis-4-{[4-(dimethylamino)-5,6,7,8-tetrahydroquinazolin-2-yl]amino}cyclohexyl)urea], the class was 2 (Class 2: The value of percent of control at 10^−7 M was from 40% to 60% or the value of IC′50 was from 50 nM to 200 nM.).
For `CN(C)c1nc(N[C@H]2CC[C@@H](NC(=O)Nc3ccccc3C(C)(C)C)CC2)nc2c1CCCC2` [compound 1684], the class was 3 (Class 3 The value of percent of control at 10^−7 M was more than 60% or the value of IC50 was more than 200 nM.).
With `Cc1c(Cl)cccc1NC(=O)N[C@H]1CC[C@@H](Nc2nc3c(c(N(C)C)n2)CCCC3)CC1` [compound 1685] the class was 3 (Class 3 The value of percent of control at 10^−7 M was more than 60% or the value of IC50 was more than 200 nM.).
With `CN(C)c1nc(N[C@H]2CC[C@@H](NC(=O)Nc3c(F)cc(Br)cc3F)CC2)nc2c1CCCC2` [compound 1686] the class was 3 (Class 3 The value of percent of control at 10^−7 M was more than 60% or the value of IC50 was more than 200 nM.).
In the case of `CN(C)c1nc(N[C@H]2CC[C@@H](NC(=O)Nc3ccc(Cl)cc3C(F)(F)F)CC2)nc2c1CCCC2` [compound 1687], the class is reported as 3 (Class 3 The value of percent of control at 10^−7 M was more than 60% or the value of IC50 was more than 200 nM.).
In the case of `CN(C)c1nc(N[C@H]2CC[C@@H](NC(=O)Nc3ccc(C#N)cc3)CC2)nc2c1CCCC2` [compound 1688], the class is reported as 3 (Class 3 The value of percent of control at 10^−7 M was more than 60% or the value of IC50 was more than 200 nM.).
With `CN(C)c1nc(N[C@H]2CC[C@@H](NC(=O)NC(c3ccccc3)c3ccccc3)CC2)nc2c1CCCC2` [compound 1689] the class was 1 (Class 1: The value of percent of control at 10^−7 M was less than 40% or the value of IC50 was less than 50 nM.).
With `Cc1cc(Br)cc(C)c1NC(=O)N[C@H]1CC[C@@H](Nc2nc3c(c(N(C)C)n2)CCCC3)CC1` [compound 1690, N-(4-bromo-2,6-dimethylphenyl)-N′-(cis-4-{[4-(dimethylamino)-5,6,7,8-tetrahydroquinazolin-2-yl]amino}cyclohexyl)urea] the class was 1 (Class 1: The value of percent of control at 10^−7 M was less than 40% or the value of IC50 was less than 50 nM.).
For `Cc1noc(-c2ccccc2)c1NC(=O)N[C@H]1CC[C@@H](Nc2nc3c(c(N(C)C)n2)CCCC3)CC1` [compound 1691], the class was 1 (Class 1: The value of percent of control at 10^−7 M was less than 40% or the value of IC50 was less than 50 nM.).
For `Cc1cc(NC(=O)N[C@H]2CC[C@@H](Nc3nc4c(c(N(C)C)n3)CCCC4)CC2)c(C(F)(F)F)o1` [compound 1692], the class was 3 (Class 3 The value of percent of control at 10^−7 M was more than 60% or the value of IC50 was more than 200 nM.).
In the case of `CN(C)c1nc(N[C@H]2CC[C@@H](NC(=O)Nc3ccccc3Br)CC2)nc2c1CCCC2` [compound 1693], the class is reported as 3 (Class 3 The value of percent of control at 10^−7 M was more than 60% or the value of IC50 was more than 200 nM.).
For `CN(C)c1nc(N[C@H]2CC[C@@H](NC(=O)Nc3ccccc3-c3ccccc3)CC2)nc2c1CCCC2` [compound 1694], the class was 3 (Class 3 The value of percent of control at 10^−7 M was more than 60% or the value of IC50 was more than 200 nM.).
With `CCCCNC(=O)N[C@H]1CC[C@@H](Nc2nc3c(c(N(C)C)n2)CCCC3)CC1` [compound 1695] the class was 3 (Class 3 The value of percent of control at 10^−7 M was more than 60% or the value of IC50 was more than 200 nM.).
For `Cc1cccc(NC(=O)N[C@H]2CC[C@@H](Nc3nc4c(c(N(C)C)n3)CCCC4)CC2)c1C` [compound 1696], the class was 3 (Class 3 The value of percent of control at 10^−7 M was more than 60% or the value of IC50 was more than 200 nM.).
In the case of `CCOC(=O)c1cccc(NC(=O)N[C@H]2CC[C@@H](Nc3nc4c(c(N(C)C)n3)CCCC4)CC2)c1` [compound 1697], the class is reported as 3 (Class 3 The value of percent of control at 10^−7 M was more than 60% or the value of IC50 was more than 200 nM.).
`C=C(C)c1cccc(C(C)(C)NC(=O)N[C@H]2CC[C@@H](Nc3nc4c(c(N(C)C)n3)CCCC4)CC2)c1` [compound 1698] was tested, and the class was 3 (Class 3 The value of percent of control at 10^−7 M was more than 60% or the value of IC50 was more than 200 nM.).
In the case of `CN(C)c1nc(N[C@H]2CC[C@@H](NC(=O)Nc3cccc4ccccc34)CC2)nc2c1CCCC2` [compound 1700], the class is reported as 2 (Class 2: The value of percent of control at 10^−7 M was from 40% to 60% or the value of IC′50 was from 50 nM to 200 nM.).
`CN(C)c1nc(N[C@H]2CC[C@@H](NC(=O)NC3C[C@H]3c3ccccc3)CC2)nc2c1CCCC2` (some centres unmarked) [compound 1701] was tested, and the class was 3 (Class 3 The value of percent of control at 10^−7 M was more than 60% or the value of IC50 was more than 200 nM.).
For `CN(C)c1nc(N[C@H]2CC[C@@H](NC(=O)Nc3ccc(Oc4ccccc4)cc3)CC2)nc2c1CCCC2` [compound 1702], the class was 3 (Class 3 The value of percent of control at 10^−7 M was more than 60% or the value of IC50 was more than 200 nM.).
For `CCCCCNC(=O)N[C@H]1CC[C@@H](Nc2nc3c(c(N(C)C)n2)CCCC3)CC1` [compound 1703], the class was 3 (Class 3 The value of percent of control at 10^−7 M was more than 60% or the value of IC50 was more than 200 nM.).
With `CC(NC(=O)NC1CCC(Nc2nc3c(c(N(C)C)n2)CCCC3)CC1)c1ccccc1` (centres unmarked) [compound 1707] the class was 3 (Class 3 The value of percent of control at 10^−7 M was more than 60% or the value of IC50 was more than 200 nM.).
For `CN(C)c1nc(N[C@H]2CC[C@@H](NC(=O)Nc3c(Cl)c(Cl)cc(Cl)c3Cl)CC2)nc2c1CCCC2` [compound 1708], the class was 3 (Class 3 The value of percent of control at 10^−7 M was more than 60% or the value of IC50 was more than 200 nM.).
In the case of `CN(C)c1nc(N[C@H]2CC[C@@H](NC(=O)Nc3ccc(Br)cc3Br)CC2)nc2c1CCCC2` [compound 1709], the class is reported as 2 (Class 2: The value of percent of control at 10^−7 M was from 40% to 60% or the value of IC′50 was from 50 nM to 200 nM.).
